{
  "source": "patent US20230232863A1",
  "about": "“FEED COMPOSITION FOR TENEBRIO MOLITOR” (priority 2022, published 2023)",
  "key": {"[1]": {"tested_on": "Phenoloxidase", "assay": "Phenoloxidase activity analysis in homogenized larvae tissue", "assay_type": "in vivo, Tenebrio molitor", "settings": "after alloferon diet", "method": "For various analysis of biologic response, harvested mealworms larvae were killed by freezing and then all mealworms stored at −20° C. Penoloxidase activity in homogenized larvae tissue was analyzed with a 96 well microplate reader using catechol as the substrate. After the sample was incubated for 37° C. for 10 min, the 420 nm absorbance was measured with a microplate spectrophotometer (Bio-Rad, CA, USA). The essay was performed with three replicates and each experiment was repeated three times. The penoloxidase activity was expressed as units of enzyme activity per mg protein."}, "[2]": {"tested_on": "Sf9 insect cells", "assay": "In vitro cell proliferation analysis by PrestoBlue assay", "assay_type": "cell-based", "settings": "300 nM alloferon; measured at 0, 2, 4 and 6 days", "method": "The proliferation of Sf9 insect cells was analyzed by the PrestoBlue assay (Invitrogen, CA, USA). 8,000 cells/well were prepared in 96 well plates (Sigma-Aldrich, MI, USA). After cells were seeded, the cells were incubated with PBS with alloferon (300 nM). The control group received PBS without aloferon. At 0, 2, 4, and 6 days after applying 10% PrestoBlue, the color switchover of resazurin to resorufin (Absorbance 570 nm/600 nm) was measured with the microplate reader (BioTeck, Vt., USA)."}, "[3]": {"tested_on": "Tenebrio molitor", "assay": "Mealworm larvae feeding: survival rate", "assay_type": "in vivo", "settings": "alloferon peptide of 1 ppm", "method": "The feeding gelatin was made with combining 200 g of distilled water and 4 g of paper gelatin (Gelita H G, Eberbach, Germany), and solidified in the refrigerator using an ice cubic stick tray with the lid closed. The same process was performed for the experimental group of gelatin containing alloferon peptide (Biomatik, Del., USA) of 1 ppm. The tray had 10 slots to make each gelatin of approximately 20 g gelatin cubic and kept in the refrigerator with the lids closed to minimize loss of moisture.\nYellow mealworms (Tenebrio molitor) were provided by a private local insect breeder (Mealworm village, Seoul, Korea). Mealworms larvae were divided into three different dietary groups: (1) About 500 larvae were placed in a plastic container (18.5×12×5.5 cm) with 30 g wheat bran only (control group), (2) About 500 larvae with wheat bran supplemented with 20 g gelatin three times per week (positive control group), (3) About 500 larvae with wheat bran supplemented with 20 g gelatin containing alloferon peptide of 1 ppm three times per week (experimental group). […]\nMealworms pupae and dead larvae were counted and removed daily from each experimental group, and the numbers were recorded for the evaluation of survival rate. The average weight of the mealworm larvae was recorded every week with 20 randomly selected mealworms."}, "[4]": {"tested_on": "Tenebrio molitor", "assay": "Mealworm larvae feeding: development time (larvae-pupae transformation)", "assay_type": "in vivo", "settings": "days until 50% of larvae changed into pupae; laboratory scale; alloferon 1 ppm", "method": "The feeding gelatin was made with combining 200 g of distilled water and 4 g of paper gelatin (Gelita H G, Eberbach, Germany), and solidified in the refrigerator using an ice cubic stick tray with the lid closed. The same process was performed for the experimental group of gelatin containing alloferon peptide (Biomatik, Del., USA) of 1 ppm. The tray had 10 slots to make each gelatin of approximately 20 g gelatin cubic and kept in the refrigerator with the lids closed to minimize loss of moisture. Yellow mealworms (Tenebrio molitor) were provided by a private local insect breeder (Mealworm village, Seoul, Korea). Mealworms larvae were divided into three different dietary groups: (1) About 500 larvae were placed in a plastic container (18.5×12×5.5 cm) with 30 g wheat bran only (control group), (2) About 500 larvae with wheat bran supplemented with 20 g gelatin three times per week (positive control group), (3) About 500 larvae with wheat bran supplemented with 20 g gelatin containing alloferon peptide of 1 ppm three times per week (experimental group). Two replicated containers per each dietary group were set up, after which the containers were placed in a climate chamber at 25° C. with a relative humidity of 60%. Development time of mealworms was considered to be the number of days until 50% of mealworms larvae changed into pupae stage."}},
  "data": [
    {"substance": "H-His-Gly-Val-Ser-Gly-His-Gly-Gln-His-Gly-Val-His-Gly-OH (H-HGVSGHGQHGVHG-OH) [alloferon, immunomodulatory peptide (Biomatik) first isolated from hemolymph of Calliphora vicina maggots]", "values": [
      {"measurement": "phenoloxidase expression/activity in mealworm tissue", "setting": "[1]", "value": "increasing the expression of penoloxidase"},
      {"measurement": "cell proliferation of Sf9 cells", "setting": "[2]", "value": "significantly boosted cell proliferation of Sf9 cells only after 6 days"},
      {"measurement": "increase of survival rate", "setting": "[3]", "value": "over 61.8%"},
      {"measurement": "development time shortened compared to wheat bran diet control", "setting": "[4]", "value": 40.3, "unit": "%"}
    ]}
  ]
}
